We go through 2 compounds from patent publication US20120015923A1, “USE OF ANDROGRAPHOLIDE COMPOUNDS FOR TREATING INFLAMMATION AND AIRWAY DISORDERS” (NATIONAL UNIVERSITY OF SINGAPORE, priority 2009, published 2012).

For the test, the system named is IL-4, IL-5, IL-13, eotaxin and IFN-γ in the BAL fluid. Nature of the test: Cytokine and chemokine levels in BAL fluid (ELISA), OVA mouse asthma model. It counts as in vivo, BALB/c mice. Particulars: OVA-challenged mice. The protocol:
Andrographolide or DDAG alone (0.1, 0.5, and 1 mg/kg; Sigma, St. Louis, Mo.) or vehicle (1% dimethyl sulfoxide [DMSO]) in 0.1 ml saline was given by intraperitoneal injections 2 hour before and 10 hours after each OVA aerosol challenge. Andrographolide or 14-deoxy-11,12-didehydroandrographolide (DDA) were prepared from stock. DMSO was used as a solvent to dissolve Andrographolide or DDA. A stock solution of 10 mg/ml was prepared and stored at −20° C. When used, the stock solution was thawed and diluted with Saline solution to form three different drug concentrations: 0.01 mg/ml, 0.05 mg/ml and 0.1 mg/ml.
Bronchoalveolar lavage (BAL) was conducted on Day 25, 24 hours after the final OVA/saline challenge. Mice were anaesthetized by 0.3 ml i.p. injections of an anesthetic cocktail (ketamine: medetomidine: H2O=3:4:33, Parnell, Alexandria NSW, Australia & Pfizer, Auckland, New Zealand) with 27 G½ sterile needle (PrecisionGlide®). Mice were sacrificed by cervical dislocation 5 minutes after anesthetization. 25 G½ sterile needles (PrecisionGlide®) were used for blood extraction. […] Tracheotomy was then performed and a small transverse incision was made on the exposed trachea. Blunt needles (20 G), which were connected to 1 ml sterile syringes, were inserted into the trachea through this incision and 0.5 ml of ice-cold PBS (4° C.) was instilled thrice into the lungs (0.5 ml×3). About 1.2-1.4 ml of BAL fluid was retrieved from each mouse and was kept in −80° C. for subsequent experiments.
DDAG alone (0.1, 0.5, and 1 mg/kg; Sigma, St. Louis, Mo.) or vehicle (2% dimethyl sulfoxide [DMSO]) in 0.1 ml saline was given by intraperitoneal injections 2 hour before and 10 hours after each OVA aerosol challenge. In the combinational experiments, DDAG (0.1 mg/kg) in combination with Dexamethasone (0.05 mg/kg) was given intraperitoneally. In both experimental setting, saline aerosol was used as a negative control. Animal experiments were performed according to the Institutional guidelines for Animal Care and Use Committee of the National University of Singapore.
Levels of IL-4, 11-5, IL-13, eotaxin and IFN-γ in the BAL fluid were measured (IL-4, IL-5 and IFN-γ from BD Biosciences Pharmingen, San Diego, Calif., USA; IL-13 and eotaxin from R&D Systems, Minneapolis, Minn., USA). The kits were obtained from two different manufacturers and thus the protocols differed in certain steps. In brief, 50 μl of coating capture antibody in respective coating buffers (pH 9.5, 0.1 M sodium carbonate for IL-4, IL-5 and IFN-γ; 1×PBS for IL-13 and eotaxin) was coated to 96-well ELISA plate (NUNC, Denmark). The plate was sealed with parafilm and incubated overnight at respective temperature (4° C. for IL-4, IL-5 and IFN-γ and room temperature for IL-13 and eotaxin). Next day, each well was washed with washing buffer (PBS with 0.05% Tween-20) and blocked with 200 μl blocking buffer (PBS with 10% FBS for IL-4, IL-5 and IFN-γ; 1×PBS with 1% BSA and 5% sucrose for IL-13 and eotaxin) for 2 hours at room temperature. After blocking, 50 μl of standards and BAL fluid samples were loaded into respective wells, and incubated for 2 h at room temperature. Several washings were done to remove unbound molecules. The plate was incubated with biotinylated-detection antibody with HRP for 1 h (BD OptEIA™ Kit) or with biotinylated detection antibody for 1 h followed by HRP for 45 min (R&D Kit). After washing, 50 μl of TMB peroxidase substrate (solution A: solution B=9:1) was added into each well, and incubated for 30 min in dark. Lastly, 50 μl of stopping solution (1 M H2SO4) was added to stop the reaction. The optical density of each well in the plate was read at 450 nm with λ correction at 570 nm. Detection limits of the respective kits are as follow: 4 pg/ml for IL-4 and IL-5; 15.6 pg/ml for IL-13 and IFN-γ; and 2 pg/ml for eotaxin.
Background: An ELISA detects its analyte on a solid surface through an enzyme-linked reagent.

Where [1] appears, read: 0.1, 0.5, 1 mg/kg i.p., 24 hours after last OVA aerosol, vs DMSO control.

Turning to `C=C1CCC2C(C)(CO)C(O)CCC2(C)C1C=CC1=CCOC1=O` (centres unmarked) [DDAG, 14-Deoxy-11,12-didehydroandrographolide], the “IFN-γ level in BAL fluid” value (1 mg/kg) is “markedly upregulated”. Moreover, under setting [1], the “IL-4 level in BAL fluid” value is “significantly (P<0.05) reduced”, the “IL-5 level in BAL fluid” value is “significantly (P<0.05) reduced” and the “IL-13 level in BAL fluid” value is “significantly (P<0.05) reduced”.

For the compound `C=C1CC[C@@H]2[C@](C)(CO)[C@H](O)CC[C@@]2(C)[C@@H]1C/C=C1/C(=O)OC[C@H]1O` [Andrographolide], under setting [1], the “IL-4 level in BAL fluid” value is on record as “inhibited”, the “IL-5 level in BAL fluid” value is listed as “inhibited”, the “IL-13 level in BAL fluid” value is listed as “inhibited” and the “eotaxin level in BAL fluid” value was “inhibition”.
